In patent publication US4912116A, “Propiophenone derivatives for treatment of pollakiuria (frequency urination)” (Hokuriku Pharmaceutical Co., Ltd., priority 1986, dated 1990):
Counter-ions that a name gives are not always drawn.

Columns and labels:
[1] = in vivo; conditions: mouse, oral, mortality for one week, Probit method
Description: Five to ten male ddY mice aged 4-5 weeks were used for each determination.
The test drug (5-8 dose levels) was orally administrated, and the LD50 value was calculated by Probit method from the mortality for one week after administration.

[2] = tested on: micturition reflex (rhythmic bladder contractions); assay: Inhibition of micturition reflex (rhythmic bladder contractions) in anesthetized rats; type: in vivo, male wister rats; conditions: for Disappearance time (of bladder contractions): i.v., 3 rats, mean ± S.E.; for ED (3 min disappearance of contractions): iv, read-out: ED3 (dose at which rhythmic bladder contractions disappeared in three (3) minutes)
Description: (§1) statistical analysis: Each data of Experiment 1-6 represents the mean±S.E. statistical analysis of the data was performed using student's t-test.
According to the method described by Morikawa et al. (Folia phamacol. japon.: 88,355 (1986), male wister rats weighing about 300 g (in case of intraduodenal administration, fasted 18-20 hours) were anesthetized with urethane (500 mg/kg, i.p.) and alpha-chloralose (50 mg/kg, i.p.), and fixed on their back.
Then, through a midline incision of the abdomen, the urinary bladder was exposed, provided with a small incision, and a balloon (capacity about 1 ml) was inserted into the bladder dome.
The balloon was connected to a pressure transducer and variations of inside pressure were recorded on a recorder.
Micturition reflex was elicited by elevating balloon pressure 10-20 cm H2 O.
In case of intravenous administration, the drug was administrated through a cannula inserted into the left jugular vein and, in case of intraduodenum administration, the drug was administrated through a cannula into the duodenum from outside the stomach.
In case of intravenous administration, the drug was evaluated by the dissappearance time of bladder contractions caused by micturition reflex.
In case of intraduodenal administration, the sum total of amplitude of bladder contractions caused by the micturition reflex was calculated during each five minutes at 5 min. before and 15, 30, 45, and 60 min. after the administration.
Then, the maximum inhibition rate was determined from one of the above judgment times compared with that of before the administration, and the dose which inhibited 50 percent of the sum total of amplitude of bladder contractions during five minutes (ED 50 value), was calculated from the graph.

[3] = tested on: cystometrogram (time to micturition); assay: Effects on the cystometrogram (Cat); type: in vivo, Mongrel adult cats; conditions: cats
Description: as §1
Mongrel adult cats weighing about 3 kg (in case of intraduodenal administration, fasted 24 hours) were anesthetized with urethane (500 mg/kg, i.p.) and alpha-chloralose (50 mg/kg, i.p.) and fixed on their back.
After midline incision of the abdomen, the ureters were ligated and polyethylene tubes were inserted into the kidney side and urinary bladder side, urine was led out of the body from the kidney side, and warm saline was infused using a continuous infusion pump from the urinary bladder side.
Then, a catheter was inserted into the bladder dome and connected to a pressure transducer Intravesical pressure was recorded on a recorder.
The infusion rate of saline was changed (0.7-6.6 ml/min) so as to induce the time to micturition from saline infusion at about five minutes.
Each of delayed time of micturition was evaluated. In case of intravenous administration, the drug was administered through a cannula inserted into the right femoral vein at 30 seconds before saline infusion.
In case of intraduodenal administration, the drug was administrated through a tube inserted into the duodenum by way of mouth at the time of saline infusion, and the time to micturition was measured at 15 min. intervals until 90 min.

[4] = tested on: cystometrogram (time to micturition); assay: Effects on the cystometrogram (Dog); type: in vivo, Mongrel adult dogs; conditions: i.v., dogs, mean ± S.E., saline 6.0 ± 13.8
Description: as §1
Mongrel adult dogs weighing about 10 kg were anesthetized with thiopental (20 mg/kg, i.v.) and immobilized with gallamine (2 mg/kg, i.v.), and fixed on their back.
In the experiment, infusion of pentobarbital (3 mg/kg/hr, i.v.) and gallamine (3 mg/kg i.v.) were continuted, and artifical respiration was performed (20 times/min, 20 ml air/kg).
After midline incision of the abdomen, the ureters were ligated and polyethylene tubes were inserted into the kidney side and the urinary bladder side. Urine was led out of the body from the kidney side, and warm saline was infused using a continuous infusion pump from the urinary bladder side.
Then, a catheter was inserted into the bladder dome and connected to a pressure transducer. Intravesical pressure was recorded on a recorder.
The infusion rate of saline was changed (6-35 ml/min) so as to induce the time to micturition from the saline infusion (time to micturition) at about five minutes.
The drug was administered (through a cannula inserted into the right femoral vein) at the second minute before the last time to micturition, and the delayed time of micturition was evaluated.

SMILES	LD50 at 168 h [1] [mg/kg]	Disappearance time (of bladder contractions) ([2]; 1 mg/kg) [min]	Disappearance time (of bladder contractions) ([2]; 2 mg/kg) [min]	Disappearance time (of bladder contractions) ([2]; 4 mg/kg) [min]	ED (3 min disappearance of contractions) ([2]; Rattus norvegicus) [mg/kg]	Disappearance time (of bladder contractions) ([2]; 8 mg/kg) [min]	further results
CC(CN1CCCC1)C(=O)c1ccc(C2CCCCC2)cc1 (stereo not shown) [Compound 2]	587	1.0 ± 1.0	2.5 ± 1.3	6.3 ± 0.8	2.2		
CCc1ccc(C(=O)C(C)CN2CCCCC2)cc1 (stereo not shown) [Compound 3]		0.4 ± 0.4	5.3 ± 2.6	12.0 ± 1.2	1.4		
Cc1ccc(C(=O)C(C)CN2CCCCC2)cc1 (stereo not shown) [Compound 4]	450	1.0 ± 0.7	2.3 ± 0.5	4.9 ± 1.9	2.4		
COc1ccc(C(=O)C(C)CN2CCCC2)c(C)c1C (stereo not shown) [Compound 5]		6.3 ± 1.4			0.25		Disappearance time (of bladder contractions) ([2]; 0.25 mg/kg): 3.0 ± 0.4 min
CN1CCCC1CCC(=O)c1ccc(Cl)cc1 (stereo not shown) [Compound 6]			1.1 ± 0.3	1.9 ± 0.3	8	3.0 ± 0.3	
CC(CN1CCOCC1)C(=O)c1cccc(F)c1 (stereo not shown) [Compound 7]			1.8 ± 1.0		2.8	6.8 ± 2.1	
CC(CN1CCCC1)C(=O)c1ccc(CF)cc1 (stereo not shown) [Compound 8]			1.5 ± 4.79	2.4 ± 2.0		5.2 ± 2.5	
CC(CN1CCCCCC1)C(=O)c1ccc(F)cc1 (stereo not shown) [Compound 9]		0.5 ± 0.1	1.2 ± 0.8	5.5 ± 2.7	2.7		
Cc1c(-c2ccccc2)oc2c(C(=O)OCCN3CCCCC3)cccc2c1=O [flavoxate-HCl, reference compound]	1330	1.1 ± 1.1			1.4		Delayed time to micturition ([3]; 1 mg/kg, i.v., mean ± S.E., saline 6.6 ± 10.2): 12.0 ± 10.8 s; Delayed time to micturition ([3]; 4 mg/kg, i.v., mean ± S.E., saline 6.6 ± 10.2): 39.0 ± 43.8 s; Delayed time to micturition ([3]; 8 mg/kg, i.v., mean ± S.E., saline 6.6 ± 10.2): -16.8 ± 36.6 s; Delayed time to micturition ([3]; 30.0 mg/kg, i.d., after 30 min., water 22.2 ± 16.2): -45.6 ± 37.8 s; delayed effect on the cystometrogram (in words) ([3]; intravenous and intraduodenal): not recognized to produce delayed effects; Delayed time of micturition ([4]; 1 mg/kg): 0.6 ± 35.4 s; Delayed time of micturition ([4]; 3 mg/kg, * p < 0.05 vs last time to micturition): 30.6 ± 44.4 s; Disappearance time (of bladder contractions) ([2]; 3 mg/kg): 7.5 ± 2.7 min; ED50 ([2]; Rattus norvegicus, intraduodenal administration, read-out: ED50 (dose which inhibited 50 percent of the sum total of amplitude of bladder contractions during five minutes)): 270 mg/kg
